Earlier results as cited in patent US10293012B2 (priority 2017, dated 2019).

Tested on: HSV1

## heparin [Soluble heparin]
  inhibition of HSV1 infection: competitively inhibit
